Laboratory results: ChEMBL document CHEMBL1687726, “Amphotericin B-induced renal tubular cell injury is mediated by Na+ Influx through ion-permeable pores and subsequent activation of mitogen-activated protein kinases and elevation of intracellular Ca2+ concentration” (Antimicrob Agents Chemother, 2009)
Activity calls are given as the source filed them. The calls are words filed in the database; no cut-off is given here.

How the values were obtained:
LLC-PK1 [1] = assay: Cytotoxicity against pig LLC-PK1 cells at 20 ug/mL by WST-8 assay; type: cell-based, Sus scrofa; conditions: TDE = time-dependent effect
LLC-PK1 [2] = assay: Cytotoxicity against pig LLC-PK1 cells at 15 ug/ml after 6 hrs pretreated for 1 hr with membrane cholesterol depletion agent methyl-beta-cyclodextrin in presence of 4% v/v cholesterol repletion condition; type: cell-based, Sus scrofa; conditions: llc-pk1, 6 h
LLC-PK1 [3] = assay: Cytotoxicity against pig LLC-PK1 cells at 15 ug/ml after 6 hrs pretreated with 10 uM of mitochondrial Na+ -Ca2+ exchange inhibitor CGP for 20 mins by WST-8 assay; type: cell-based, Sus scrofa; conditions: llc-pk1, 6 h
LLC-PK1 [4] = assay: Cytotoxicity against pig LLC-PK1 cells at 1 to 20 ug/mL after 24 hrs by LDH leakage assay; type: cell-based, Sus scrofa; conditions: llc-pk1, 24 h
LLC-PK1 [5] = assay: Induction of JNK phosphorylation in pig LLC-PK1 cells at 15 ug/ml by Western blot analysis; type: cell-based; conditions: Sus scrofa
LLC-PK1 [6] = assay: Cytotoxicity against pig LLC-PK1 cells at 15 ug/ml after 6 hrs by WST-8 assay in presence of 1 mM […] Ca2+ chelating agent EGTA; type: cell-based, Sus scrofa; conditions: llc-pk1, 6 h
LLC-PK1 [7] = assay: Cytotoxicity against pig LLC-PK1 cells at 1 to 20 ug/mL after 24 hrs by WST-8 assay; type: cell-based, Sus scrofa; conditions: llc-pk1, 24 h
LLC-PK1 [8] = assay: Induction of mitochondrial membrane depolarization in pig LLC-PK1 cells at 15 ug/ml after 3 hrs by JC-1 staining based fluorescent microscopy; type: cell-based, Sus scrofa; conditions: llc-pk1, 3 h
LLC-PK1 [9] = assay: Cytotoxicity against pig LLC-PK1 cells at 15 ug/ml after 6 hrs pretreated with 30 uM of ryanodine receptor antagonist Dant for 20 mins by WST-8 assay; type: cell-based, Sus scrofa; conditions: llc-pk1, 6 h
LLC-PK1 [10] = assay: Cytotoxicity against pig LLC-PK1 cells at 15 ug/ml after 6 hrs pretreated with 10 uM of p38 MAPK inhibitor PD169316 for 1 hr by WST-8 assay; type: cell-based, Sus scrofa; conditions: llc-pk1, 6 h
LLC-PK1 [11] = assay: Cytotoxicity against pig LLC-PK1 cells at 15 ug/ml after 6 hrs pretreated with 1 uM of IP3 antagonist Xesto for 20 mins by WST-8 assay; type: cell-based, Sus scrofa; conditions: llc-pk1, 6 h
LLC-PK1 [12] = assay: Cytotoxicity against pig LLC-PK1 cells at 15 ug/ml after 6 hrs pretreated with 10 uM of ERK inhibitor PD98059 for 1 hr by WST-8 assay; type: cell-based, Sus scrofa; conditions: llc-pk1, 6 h
LLC-PK1 [13] = assay: Decrease in intracellular ATP level in pig LLC-PK1 cells after 24 hrs by HPLC/MS analysis; type: ADME, cell-based, Sus scrofa; conditions: llc-pk1, 24 h
LLC-PK1 [14] = assay: Induction of ERK phosphorylation in pig LLC-PK1 cells at 15 ug/ml by Western blot analysis in presence of 2 uM […]; type: cell-based; conditions: Sus scrofa
LLC-PK1 [15] = assay: Induction of mitochondrial membrane depolarization in pig LLC-PK1 cells at 15 ug/ml after 3 hrs pretreated with 10 uM of ERK inhibitor PD98059 for 1 hr by JC-1 staining based fluorescent microscopy; type: cell-based, Sus scrofa; conditions: llc-pk1, 3 h
LLC-PK1 [16] = assay: Induction of p38 phosphorylation in pig LLC-PK1 cells at 15 ug/ml by Western blot analysis; type: cell-based; conditions: Sus scrofa
LLC-PK1 [17] = assay: Induction of p38 phosphorylation in pig LLC-PK1 cells at 15 ug/ml by Western blot analysis in presence of 2 uM […]; type: cell-based; conditions: Sus scrofa
LLC-PK1 [18] = assay: Cytotoxicity against pig LLC-PK1 cells at 15 ug/ml after 6 hrs by WST-8 assay in presence of 2 uM […]; type: cell-based, Sus scrofa; conditions: llc-pk1, 6 h
LLC-PK1 [19] = assay: Induction of mitochondrial membrane depolarization in pig LLC-PK1 cells at 15 ug/ml after 3 hrs pretreated with 10 uM of mitochondrial Na+ -Ca2+ exchange inhibitor CGP for 1 hr by JC-1 staining based fluorescent microscopy; type: cell-based, Sus scrofa; conditions: llc-pk1, 3 h
LLC-PK1 [20] = assay: Induction of JNK phosphorylation in pig LLC-PK1 cells at 15 ug/ml by Western blot analysis in presence of 2 uM […]; type: cell-based; conditions: Sus scrofa
LLC-PK1 [21] = assay: Cytotoxicity against pig LLC-PK1 cells at 20 ug/mL by LDH leakage assay; type: cell-based, Sus scrofa; conditions: TDE = time-dependent effect
LLC-PK1 [22] = assay: Induction of mitochondrial membrane depolarization in pig LLC-PK1 cells at 15 ug/ml after 3 hrs pretreated with 10 uM of JNK inhibitor 2 for 1 hr by JC-1 staining based fluorescent microscopy; type: cell-based, Sus scrofa; conditions: llc-pk1, 3 h
LLC-PK1 [23] = assay: Cytotoxicity against pig LLC-PK1 cells at 15 ug/ml after 6 hrs pretreated for 1 hr with membrane cholesterol depletion agent methyl-beta-cyclodextrin; type: cell-based, Sus scrofa; conditions: llc-pk1, 6 h
LLC-PK1 [24] = assay: Decrease in intracellular ATP level in pig LLC-PK1 cells at 10 ug/ml after 24 hrs by HPLC/MS analysis; type: ADME, cell-based, Sus scrofa; conditions: llc-pk1, 24 h, TDE = time-dependent effect
LLC-PK1 [25] = assay: Induction of ERK phosphorylation in pig LLC-PK1 cells at 15 ug/ml by Western blot analysis; type: cell-based; conditions: Sus scrofa
LLC-PK1 [26] = assay: Cytotoxicity against pig LLC-PK1 cells at 15 ug/ml after 24 hrs by propidium iodide staining; type: cell-based, Sus scrofa; conditions: llc-pk1, 24 h
LLC-PK1 [27] = assay: Induction of mitochondrial membrane depolarization in pig LLC-PK1 cells at 15 ug/ml after 3 hrs pretreated with 10 uM of mitochondrial Ca2+ uniport inhibitor RR for 1 hr by JC-1 staining based fluorescent microscopy; type: cell-based, Sus scrofa; conditions: llc-pk1, 3 h
LLC-PK1 [28] = assay: Cytotoxicity against pig LLC-PK1 cells at 15 ug/ml after 6 hrs pretreated with 10 uM of JNK inhibitor 2 for 1 hr by WST-8 assay; type: cell-based, Sus scrofa; conditions: llc-pk1, 6 h
LLC-PK1 [29] = assay: Cytotoxicity against pig LLC-PK1 cells at 15 ug/ml after 6 hrs pretreated with 10 uM of mitochondrial Ca2+ uniport inhibitor RR for 20 mins by WST-8 assay; type: cell-based, Sus scrofa; conditions: llc-pk1, 6 h
LLC-PK1 [30] = assay: Induction of apoptosis in pig LLC-PK1 cells at 15 ug/ml after 24 hrs by TUNEL assay; type: cell-based, Sus scrofa; conditions: llc-pk1, 24 h
LLC-PK1 [31] = assay: Cytotoxicity against pig LLC-PK1 cells at 15 ug/ml after 6 hrs by WST-8 assay in presence low extracellular Na+ level (70 mM Na+); type: cell-based, Sus scrofa; conditions: llc-pk1, 6 h

C[C@@H]1[C@H](O)[C@@H](C)/C=C/C=C/C=C/C=C/C=C/C=C/C=C/[C@H](O[C@@H]2O[C@H](C)[C@@H](O)[C@H](N)[C@@H]2O)C[C@@H]2O[C@](O)(C[C@@H](O)C[C@@H](O)[C@H](O)CC[C@@H](O)C[C@@H](O)CC(=O)O[C@H]1C)C[C@H](O)[C@H]2C(=O)O [AMPHOTERICIN B]
Activity (LLC-PK1 [1]): tde | Activity (LLC-PK1 [2]): Toxic | Activity (LLC-PK1 [3]): Non-toxic | Activity (LLC-PK1 [4]): Dose-dependent effect | Activity (LLC-PK1 [5]): Active | Activity (LLC-PK1 [6]): Non-toxic | Activity (LLC-PK1 [7]): Dose-dependent effect | Activity (LLC-PK1 [8]): Toxic | Activity (LLC-PK1 [9]): Non-toxic | Activity (LLC-PK1 [10]): Non-toxic | Activity (LLC-PK1 [11]): Toxic | Activity (LLC-PK1 [12]): Non-toxic | Activity (LLC-PK1 [13]): Dose-dependent effect | Activity (LLC-PK1 [14]): Active | Activity (LLC-PK1 [15]): Toxic | Activity (LLC-PK1 [16]): Active | Activity (LLC-PK1 [17]): Active | Activity (LLC-PK1 [18]): Toxic | Activity (LLC-PK1 [19]): Toxic | Activity (LLC-PK1 [20]): Active | Activity (LLC-PK1 [21]): tde | Activity (LLC-PK1 [22]): Toxic | Activity (LLC-PK1 [23]): Non-toxic | Activity (LLC-PK1 [24]): tde | Activity (LLC-PK1 [25]): Active | Activity (LLC-PK1 [26]): Toxic | Activity (LLC-PK1 [27]): Toxic | Activity (LLC-PK1 [28]): Non-toxic | Activity (LLC-PK1 [29]): Non-toxic | Activity (LLC-PK1 [30]): Non-toxic | Activity (LLC-PK1 [31]): Non-toxic
